Measured values from ChEMBL document CHEMBL5212743, “Selectivity Literature for EUbOPEN Chemogenomics Library wave 3” (2023).

Columns and labels:
[1] = target: Cyclin-dependent kinase 9 (Homo sapiens) (UniProt P50750); assay: Selectivity interaction (Kinase Profiler (Millipore)) EUB0000677a CDK9; settings: at 1 µM
[2] = target: Casein kinase II subunit alpha (Homo sapiens, UniProt P68400); assay: Selectivity interaction (Kinase panel (radiometric kinase assay)) EUB0000677a CSNK2A1
[3] = system: T1, Receptor-type tyrosine-protein kinase FLT3 (Homo sapiens), P36888 [D835Y]; settings: at 1 µM
T1 sequence (whole entry): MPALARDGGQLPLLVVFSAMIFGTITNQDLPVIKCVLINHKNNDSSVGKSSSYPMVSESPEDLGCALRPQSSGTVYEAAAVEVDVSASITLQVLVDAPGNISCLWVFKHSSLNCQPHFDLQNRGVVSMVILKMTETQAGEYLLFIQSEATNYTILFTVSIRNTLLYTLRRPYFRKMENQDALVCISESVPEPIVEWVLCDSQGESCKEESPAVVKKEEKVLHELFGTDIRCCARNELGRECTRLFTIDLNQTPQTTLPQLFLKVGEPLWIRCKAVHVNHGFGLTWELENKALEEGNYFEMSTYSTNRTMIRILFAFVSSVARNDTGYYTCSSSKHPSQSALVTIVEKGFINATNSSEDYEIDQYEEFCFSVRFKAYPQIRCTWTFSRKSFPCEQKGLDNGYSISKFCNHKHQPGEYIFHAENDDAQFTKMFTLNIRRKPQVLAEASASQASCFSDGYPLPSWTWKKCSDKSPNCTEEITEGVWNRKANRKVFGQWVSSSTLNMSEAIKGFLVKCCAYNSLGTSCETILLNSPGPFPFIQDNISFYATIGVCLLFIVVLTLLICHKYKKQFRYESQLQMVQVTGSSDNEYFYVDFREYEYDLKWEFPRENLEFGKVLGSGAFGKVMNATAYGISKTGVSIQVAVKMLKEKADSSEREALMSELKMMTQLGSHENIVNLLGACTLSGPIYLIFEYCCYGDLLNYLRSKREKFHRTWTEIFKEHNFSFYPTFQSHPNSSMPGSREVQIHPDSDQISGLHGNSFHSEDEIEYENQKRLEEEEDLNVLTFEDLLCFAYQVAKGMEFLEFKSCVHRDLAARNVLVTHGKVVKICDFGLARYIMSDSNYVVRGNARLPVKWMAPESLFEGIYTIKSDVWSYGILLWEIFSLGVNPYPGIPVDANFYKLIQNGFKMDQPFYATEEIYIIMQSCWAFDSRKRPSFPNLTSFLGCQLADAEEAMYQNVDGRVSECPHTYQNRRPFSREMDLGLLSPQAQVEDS

[4] = target: T2, Serine/threonine-protein kinase PLK1 (Homo sapiens, UniProt P53350); settings: at 1 µM
Aurora kinase C = Aurora kinase C (Homo sapiens, UniProt Q9UQB9); assay: Selectivity interaction (NanoBRET assay (HEK293T cells)) EUB0000723a AURKC
[5] = target: Tyrosine-protein kinase ABL1 (Homo sapiens, UniProt P00519); assay: Selectivity interaction (NanoBRET assay (HEK293T cells)) EUB0000723a ABL1
[6] = target: T3, Aurora kinase C (Homo sapiens) (UniProt Q9UQB9); assay: Selectivity interaction (KinomeScan (DiscoverX)) EUB0000723a AURKC; settings: at 1 µM
T3 sequence (whole entry): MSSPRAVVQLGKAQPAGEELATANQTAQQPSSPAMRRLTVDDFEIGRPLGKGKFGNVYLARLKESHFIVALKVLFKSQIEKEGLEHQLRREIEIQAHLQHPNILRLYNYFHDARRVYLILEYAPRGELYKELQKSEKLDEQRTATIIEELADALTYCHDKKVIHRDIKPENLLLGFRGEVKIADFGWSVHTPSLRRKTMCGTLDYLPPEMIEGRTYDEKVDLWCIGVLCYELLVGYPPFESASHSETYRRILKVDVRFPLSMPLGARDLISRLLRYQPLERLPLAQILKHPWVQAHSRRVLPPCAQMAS

[7] = system: Tyrosine-protein kinase ABL1 (Homo sapiens), P00519 [T315I]; assay: Selectivity interaction (KinomeScan (DiscoverX)) EUB0000723a ABL1; settings: at 1 µM
[8] = target: 5-hydroxytryptamine receptor 7 (Homo sapiens, UniProt P34969); assay: Selectivity interaction (GPCR panel (PDSP screen)) EUB0000252b HTR7
[9] = target: Serine/threonine-protein kinase WNK4 (Homo sapiens) (UniProt Q96J92); assay: Selectivity interaction (KinomeScan (DiscoverX)) EUB0000704a WNK4; settings: at 1 µM
[10] = target: Serine/threonine-protein kinase WNK3 (Homo sapiens) (UniProt Q9BYP7); assay: Selectivity interaction (KinomeScan (DiscoverX)) EUB0000704a WNK3; settings: at 1 µM
[11] = target: T4, Gamma-aminobutyric acid receptor subunit alpha-1 (Homo sapiens, UniProt P14867); assay: Selectivity interaction (GPCR panel (PDSP screen)) EUB0000704a GABRA1
T4 sequence (P14867 whole entry): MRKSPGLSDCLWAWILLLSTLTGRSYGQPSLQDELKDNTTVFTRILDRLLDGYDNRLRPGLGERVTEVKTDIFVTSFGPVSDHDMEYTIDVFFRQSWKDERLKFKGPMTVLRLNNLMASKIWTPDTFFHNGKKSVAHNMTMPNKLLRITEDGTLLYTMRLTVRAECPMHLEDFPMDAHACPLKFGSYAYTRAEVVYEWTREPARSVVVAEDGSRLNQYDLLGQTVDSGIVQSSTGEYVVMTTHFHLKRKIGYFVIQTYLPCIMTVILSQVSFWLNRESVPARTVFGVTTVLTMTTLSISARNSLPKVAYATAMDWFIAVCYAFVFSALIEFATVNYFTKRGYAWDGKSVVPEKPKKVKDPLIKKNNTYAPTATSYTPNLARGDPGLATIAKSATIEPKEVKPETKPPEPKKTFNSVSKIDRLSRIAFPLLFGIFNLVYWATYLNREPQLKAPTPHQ

[12] = target: Protein kinase C alpha type (Homo sapiens) (UniProt P17252); assay: Selectivity interaction (KinomeScan (DiscoverX)) EUB0000704a PRKCA; settings: at 1 µM
[13] = target: T2, Serine/threonine-protein kinase PLK1; assay: Selectivity interaction (KinomeScan (DiscoverX)) EUB0000704a PLK1; settings: at 1 µM
[14] = target: Sodium-dependent dopamine transporter (Homo sapiens, UniProt Q01959); assay: Selectivity interaction (GPCR panel (PDSP screen)) EUB0000704a SLC6A3
[15] = target: Mitogen-activated protein kinase 10 (Homo sapiens, UniProt P53779); assay: Selectivity interaction (KinomeScan (DiscoverX)) EUB0000704a MAPK10; settings: at 1 µM
[16] = target: T5, Dual specificity mitogen-activated protein kinase kinase 5 (Homo sapiens) (UniProt Q13163); assay: Selectivity interaction (KinomeScan (DiscoverX)) EUB0000714a MAP2K5; settings: at 100 nM
T5 sequence (whole entry): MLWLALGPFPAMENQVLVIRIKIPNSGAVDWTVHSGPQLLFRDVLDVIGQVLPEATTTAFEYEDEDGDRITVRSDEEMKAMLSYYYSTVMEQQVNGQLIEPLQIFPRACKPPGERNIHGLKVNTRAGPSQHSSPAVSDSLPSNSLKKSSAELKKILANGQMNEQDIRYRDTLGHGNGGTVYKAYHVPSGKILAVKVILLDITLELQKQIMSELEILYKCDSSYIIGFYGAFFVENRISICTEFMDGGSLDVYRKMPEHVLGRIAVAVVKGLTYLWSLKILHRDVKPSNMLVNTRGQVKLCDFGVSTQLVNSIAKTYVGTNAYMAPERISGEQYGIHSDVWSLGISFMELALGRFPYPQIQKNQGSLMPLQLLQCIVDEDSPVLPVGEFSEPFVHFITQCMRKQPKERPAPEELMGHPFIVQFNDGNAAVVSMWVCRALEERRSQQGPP

Histamine H3 receptor = Histamine H3 receptor (Homo sapiens, UniProt Q9Y5N1); assay: Selectivity interaction (GPCR panel (PDSP screen)) EUB0000714a HRH3
[17] = target: Dual specificity mitogen-activated protein kinase kinase 3 (Homo sapiens) (UniProt P46734); assay: Selectivity interaction (KinomeScan (DiscoverX)) EUB0000714a MAP2K3; settings: at 100 nM
[18] = target: High affinity nerve growth factor receptor (Homo sapiens, UniProt P04629); assay: Selectivity interaction (KinomeScan (DiscoverX)) EUB0000714a NTRK1; settings: at 100 nM
[19] = target: Phosphatidylinositol 4,5-bisphosphate 3-kinase catalytic subunit alpha isoform (Homo sapiens, UniProt P42336); assay: Selectivity interaction (KinomeScan (DiscoverX)) EUB0000714a PIK3CA; settings: at 100 nM
[20] = target: T6, Alpha-2C adrenergic receptor (Homo sapiens, UniProt P18825); assay: Selectivity interaction (GPCR panel (PDSP screen)) EUB0000316b ADRA2C
T6 sequence (P18825 whole entry): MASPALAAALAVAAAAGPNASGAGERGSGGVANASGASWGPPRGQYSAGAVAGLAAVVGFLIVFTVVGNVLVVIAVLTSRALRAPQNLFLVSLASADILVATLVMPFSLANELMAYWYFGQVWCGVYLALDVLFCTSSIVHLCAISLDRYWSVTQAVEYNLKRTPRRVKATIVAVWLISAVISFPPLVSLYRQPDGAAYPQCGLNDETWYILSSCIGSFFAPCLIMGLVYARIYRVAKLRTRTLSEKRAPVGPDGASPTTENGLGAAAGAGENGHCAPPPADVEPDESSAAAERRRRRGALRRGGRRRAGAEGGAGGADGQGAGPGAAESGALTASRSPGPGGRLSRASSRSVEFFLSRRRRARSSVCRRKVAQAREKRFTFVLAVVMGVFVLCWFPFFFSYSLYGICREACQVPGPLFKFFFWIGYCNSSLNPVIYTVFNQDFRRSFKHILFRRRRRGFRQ

[21] = target: Serine/threonine-protein kinase WNK2 (Homo sapiens) (UniProt Q9Y3S1); assay: Selectivity interaction (KinomeScan (DiscoverX)) EUB0000316b WNK2; settings: at 1 µM
[22] = target: Cyclin-dependent kinase 4 (Homo sapiens) (UniProt P11802); assay: Selectivity interaction (KinomeScan (DiscoverX)) EUB0000316b CDK4; settings: at 1 µM
[23] = target: Mitogen-activated protein kinase 8 (Homo sapiens, UniProt P45983); assay: Selectivity interaction (KinomeScan (DiscoverX)) EUB0000316b MAPK8; settings: at 1 µM
[24] = target: T7, Receptor-interacting serine/threonine-protein kinase 4 (Homo sapiens) (UniProt P57078); assay: Selectivity interaction (KinomeScan (DiscoverX)) EUB0000316b RIPK4; settings: at 1 µM
T7 sequence (whole entry): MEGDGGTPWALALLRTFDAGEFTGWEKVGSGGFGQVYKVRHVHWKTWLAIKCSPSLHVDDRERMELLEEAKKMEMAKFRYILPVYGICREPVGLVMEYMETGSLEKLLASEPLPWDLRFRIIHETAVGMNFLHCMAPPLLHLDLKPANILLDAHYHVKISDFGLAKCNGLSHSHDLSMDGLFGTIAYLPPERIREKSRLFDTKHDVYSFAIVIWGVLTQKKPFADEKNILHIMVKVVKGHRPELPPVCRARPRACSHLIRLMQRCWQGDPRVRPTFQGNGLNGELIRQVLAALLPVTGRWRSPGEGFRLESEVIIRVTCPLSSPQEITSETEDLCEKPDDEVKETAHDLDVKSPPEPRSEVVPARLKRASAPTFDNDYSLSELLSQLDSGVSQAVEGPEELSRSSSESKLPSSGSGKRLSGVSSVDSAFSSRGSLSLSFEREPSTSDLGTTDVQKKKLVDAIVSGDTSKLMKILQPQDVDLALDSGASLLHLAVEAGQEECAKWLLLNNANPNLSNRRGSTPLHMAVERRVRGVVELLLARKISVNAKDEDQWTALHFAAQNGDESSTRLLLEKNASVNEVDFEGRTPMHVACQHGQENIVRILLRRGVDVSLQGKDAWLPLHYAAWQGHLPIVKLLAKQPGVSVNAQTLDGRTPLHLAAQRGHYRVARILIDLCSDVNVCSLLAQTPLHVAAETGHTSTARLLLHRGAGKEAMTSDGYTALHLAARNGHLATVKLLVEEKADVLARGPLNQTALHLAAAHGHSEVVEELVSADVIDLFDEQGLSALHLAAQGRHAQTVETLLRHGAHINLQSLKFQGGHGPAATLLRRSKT

[25] = target: Mitogen-activated protein kinase kinase kinase 14 (Homo sapiens) (UniProt Q99558); assay: Selectivity interaction (KinomeScan (DiscoverX)) EUB0000316b MAP3K14; settings: at 1 µM
[26] = target: T4, Gamma-aminobutyric acid receptor subunit alpha-1; assay: Selectivity interaction (GPCR panel (PDSP screen)) EUB0000316b GABRA1

T2 sequence (P53350 whole entry): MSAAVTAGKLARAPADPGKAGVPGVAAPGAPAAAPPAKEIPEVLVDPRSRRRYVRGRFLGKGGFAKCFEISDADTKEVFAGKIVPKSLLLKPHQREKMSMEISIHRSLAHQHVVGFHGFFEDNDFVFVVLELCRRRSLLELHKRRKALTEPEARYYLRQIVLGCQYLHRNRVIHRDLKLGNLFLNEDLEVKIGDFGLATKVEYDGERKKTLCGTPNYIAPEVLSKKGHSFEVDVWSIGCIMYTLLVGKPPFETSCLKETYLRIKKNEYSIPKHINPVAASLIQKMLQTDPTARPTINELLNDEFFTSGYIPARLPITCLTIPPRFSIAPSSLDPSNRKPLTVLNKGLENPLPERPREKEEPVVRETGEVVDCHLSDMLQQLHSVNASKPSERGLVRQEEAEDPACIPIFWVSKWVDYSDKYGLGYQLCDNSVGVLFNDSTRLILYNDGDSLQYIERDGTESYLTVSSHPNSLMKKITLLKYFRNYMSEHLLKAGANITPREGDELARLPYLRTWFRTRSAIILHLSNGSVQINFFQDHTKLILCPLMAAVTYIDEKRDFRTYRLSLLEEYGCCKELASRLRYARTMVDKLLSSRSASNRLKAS
Sequence of Serine/threonine-protein kinase WNK2 (Homo sapiens) (Q9Y3S1 whole entry): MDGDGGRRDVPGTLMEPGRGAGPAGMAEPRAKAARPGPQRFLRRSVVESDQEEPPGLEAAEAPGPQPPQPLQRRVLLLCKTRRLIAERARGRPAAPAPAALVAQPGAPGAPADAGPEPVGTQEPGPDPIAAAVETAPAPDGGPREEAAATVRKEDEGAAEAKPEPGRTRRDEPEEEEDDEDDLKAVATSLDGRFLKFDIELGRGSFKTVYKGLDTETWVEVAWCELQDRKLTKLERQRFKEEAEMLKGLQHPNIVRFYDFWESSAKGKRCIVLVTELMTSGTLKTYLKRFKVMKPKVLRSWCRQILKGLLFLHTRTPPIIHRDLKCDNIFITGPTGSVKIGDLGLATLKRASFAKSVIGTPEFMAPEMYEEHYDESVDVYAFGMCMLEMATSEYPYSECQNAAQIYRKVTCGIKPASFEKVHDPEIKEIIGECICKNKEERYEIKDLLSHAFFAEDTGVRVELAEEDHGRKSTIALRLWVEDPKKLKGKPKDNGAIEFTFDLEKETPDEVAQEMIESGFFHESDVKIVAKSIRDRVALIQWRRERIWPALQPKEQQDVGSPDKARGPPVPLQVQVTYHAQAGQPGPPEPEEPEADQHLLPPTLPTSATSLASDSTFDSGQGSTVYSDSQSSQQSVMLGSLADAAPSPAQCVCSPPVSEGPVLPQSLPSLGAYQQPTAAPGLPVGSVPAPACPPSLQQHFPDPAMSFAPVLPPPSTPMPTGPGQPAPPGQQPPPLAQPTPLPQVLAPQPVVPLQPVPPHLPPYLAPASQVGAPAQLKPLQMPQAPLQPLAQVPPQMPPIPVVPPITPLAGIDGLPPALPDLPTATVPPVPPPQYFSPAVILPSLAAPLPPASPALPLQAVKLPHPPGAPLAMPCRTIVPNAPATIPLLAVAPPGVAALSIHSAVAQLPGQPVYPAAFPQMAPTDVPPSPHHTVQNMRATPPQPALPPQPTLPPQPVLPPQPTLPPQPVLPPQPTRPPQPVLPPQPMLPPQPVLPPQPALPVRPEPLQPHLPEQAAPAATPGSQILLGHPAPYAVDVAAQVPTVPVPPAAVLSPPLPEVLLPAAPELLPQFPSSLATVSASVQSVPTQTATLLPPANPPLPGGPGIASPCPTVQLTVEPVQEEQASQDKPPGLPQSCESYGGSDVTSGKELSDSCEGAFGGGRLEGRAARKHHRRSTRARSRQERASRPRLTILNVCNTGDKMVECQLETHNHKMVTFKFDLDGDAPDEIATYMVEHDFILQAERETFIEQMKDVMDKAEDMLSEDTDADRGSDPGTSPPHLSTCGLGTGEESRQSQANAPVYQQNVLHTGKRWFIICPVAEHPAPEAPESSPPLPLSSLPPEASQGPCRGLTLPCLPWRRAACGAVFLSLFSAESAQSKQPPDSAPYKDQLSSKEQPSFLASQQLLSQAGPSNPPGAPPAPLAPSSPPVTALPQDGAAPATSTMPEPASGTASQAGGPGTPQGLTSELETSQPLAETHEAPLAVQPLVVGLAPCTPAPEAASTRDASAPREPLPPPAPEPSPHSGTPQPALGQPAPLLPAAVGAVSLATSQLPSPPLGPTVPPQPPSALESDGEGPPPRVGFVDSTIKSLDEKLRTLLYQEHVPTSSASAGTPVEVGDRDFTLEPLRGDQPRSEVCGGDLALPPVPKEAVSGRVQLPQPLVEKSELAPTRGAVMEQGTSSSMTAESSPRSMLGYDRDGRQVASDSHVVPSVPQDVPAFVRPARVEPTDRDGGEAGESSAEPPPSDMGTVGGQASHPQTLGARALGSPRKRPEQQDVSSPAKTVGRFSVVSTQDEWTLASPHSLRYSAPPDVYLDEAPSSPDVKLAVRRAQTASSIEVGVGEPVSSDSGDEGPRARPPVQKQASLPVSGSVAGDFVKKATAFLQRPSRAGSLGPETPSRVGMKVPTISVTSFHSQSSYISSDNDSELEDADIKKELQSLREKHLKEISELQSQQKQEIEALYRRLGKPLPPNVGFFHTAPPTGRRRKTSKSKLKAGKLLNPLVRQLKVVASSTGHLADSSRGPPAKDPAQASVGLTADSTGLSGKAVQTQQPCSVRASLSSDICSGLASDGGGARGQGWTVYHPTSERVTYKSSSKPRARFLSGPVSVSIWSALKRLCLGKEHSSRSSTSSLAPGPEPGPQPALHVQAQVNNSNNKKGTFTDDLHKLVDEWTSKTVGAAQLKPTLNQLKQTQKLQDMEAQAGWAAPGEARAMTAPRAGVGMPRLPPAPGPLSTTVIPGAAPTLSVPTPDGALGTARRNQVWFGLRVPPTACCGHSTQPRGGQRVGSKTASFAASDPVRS
Sequence of 5-hydroxytryptamine receptor 7 (P34969 whole entry): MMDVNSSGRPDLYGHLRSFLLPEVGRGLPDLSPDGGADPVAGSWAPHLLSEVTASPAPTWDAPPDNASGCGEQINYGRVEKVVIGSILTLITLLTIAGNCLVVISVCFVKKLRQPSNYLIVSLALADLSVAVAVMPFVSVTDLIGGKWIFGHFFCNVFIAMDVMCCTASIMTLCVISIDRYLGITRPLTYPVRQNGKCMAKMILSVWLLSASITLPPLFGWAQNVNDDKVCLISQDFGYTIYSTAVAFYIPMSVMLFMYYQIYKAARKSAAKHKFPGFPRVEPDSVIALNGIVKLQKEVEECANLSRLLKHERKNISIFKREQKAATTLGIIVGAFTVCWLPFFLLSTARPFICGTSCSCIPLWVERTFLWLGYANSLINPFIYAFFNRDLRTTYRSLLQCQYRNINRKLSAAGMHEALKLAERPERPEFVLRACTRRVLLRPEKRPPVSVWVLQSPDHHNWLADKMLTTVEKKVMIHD
Sequence of Histamine H3 receptor (Q9Y5N1 whole entry): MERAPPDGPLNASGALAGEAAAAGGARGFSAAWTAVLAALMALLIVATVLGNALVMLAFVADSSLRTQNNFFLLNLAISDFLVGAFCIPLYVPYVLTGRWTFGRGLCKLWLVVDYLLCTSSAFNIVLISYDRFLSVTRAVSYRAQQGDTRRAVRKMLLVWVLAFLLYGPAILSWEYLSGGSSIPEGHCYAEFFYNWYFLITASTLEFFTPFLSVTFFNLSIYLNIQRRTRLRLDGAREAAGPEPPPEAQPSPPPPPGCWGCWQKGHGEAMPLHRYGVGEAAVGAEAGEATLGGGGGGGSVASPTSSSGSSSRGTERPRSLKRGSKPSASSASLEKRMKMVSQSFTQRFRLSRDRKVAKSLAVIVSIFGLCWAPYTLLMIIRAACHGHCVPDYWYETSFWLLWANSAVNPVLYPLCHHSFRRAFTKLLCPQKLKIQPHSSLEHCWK
Sequence of Dual specificity mitogen-activated protein kinase kinase 3 (Homo sapiens) (P46734 whole entry): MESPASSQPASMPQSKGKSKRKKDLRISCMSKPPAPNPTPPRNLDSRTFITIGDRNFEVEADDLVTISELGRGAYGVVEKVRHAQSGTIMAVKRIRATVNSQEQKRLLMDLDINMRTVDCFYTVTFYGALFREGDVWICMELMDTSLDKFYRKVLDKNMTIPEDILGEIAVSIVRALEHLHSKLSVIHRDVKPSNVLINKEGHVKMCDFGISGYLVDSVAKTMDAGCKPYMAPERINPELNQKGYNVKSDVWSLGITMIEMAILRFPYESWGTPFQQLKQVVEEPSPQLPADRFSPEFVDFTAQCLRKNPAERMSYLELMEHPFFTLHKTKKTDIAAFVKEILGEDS
Sequence of Mitogen-activated protein kinase 8 (P45983 whole entry): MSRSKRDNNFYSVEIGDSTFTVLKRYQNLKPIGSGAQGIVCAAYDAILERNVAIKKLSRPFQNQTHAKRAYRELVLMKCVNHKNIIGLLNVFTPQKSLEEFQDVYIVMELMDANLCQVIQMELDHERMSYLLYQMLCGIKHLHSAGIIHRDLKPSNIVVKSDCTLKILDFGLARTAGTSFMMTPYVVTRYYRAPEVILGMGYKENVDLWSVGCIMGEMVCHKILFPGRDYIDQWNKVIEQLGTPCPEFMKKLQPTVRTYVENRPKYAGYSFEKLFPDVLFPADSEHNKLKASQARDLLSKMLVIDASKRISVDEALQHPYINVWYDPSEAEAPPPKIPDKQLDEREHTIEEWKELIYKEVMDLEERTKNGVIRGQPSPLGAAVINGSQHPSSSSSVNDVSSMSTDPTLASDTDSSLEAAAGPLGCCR
Sequence of Cyclin-dependent kinase 9 (Homo sapiens) (P50750 whole entry): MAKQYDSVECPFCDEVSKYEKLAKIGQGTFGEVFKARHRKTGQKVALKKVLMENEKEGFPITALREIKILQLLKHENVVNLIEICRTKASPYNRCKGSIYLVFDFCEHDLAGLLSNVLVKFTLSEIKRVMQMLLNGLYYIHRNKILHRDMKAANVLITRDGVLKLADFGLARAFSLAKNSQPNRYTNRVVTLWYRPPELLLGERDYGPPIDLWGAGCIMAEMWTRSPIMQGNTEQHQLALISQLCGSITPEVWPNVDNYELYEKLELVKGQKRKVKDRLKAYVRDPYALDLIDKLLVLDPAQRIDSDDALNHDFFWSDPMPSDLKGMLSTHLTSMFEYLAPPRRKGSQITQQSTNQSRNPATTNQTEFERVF

`CN1CCN(c2ccc(OC(F)(F)F)c(Nc3ncc4c(n3)-c3c(c(C(N)=O)nn3CCO)CC4)c2)CC1` [ONVANSERTIB] showed a % of control [1] of 10%, an IC50 [2] of 0.826 µM and a % of control [3] of 9%. It also gave a % of control [4] of 3%.
For `O=C(NCCCN1CCOC1=O)c1cnc(NCc2cc(Br)ccc2Br)nc1NC1CCCC1`, the IC50 (Aurora kinase C) was > 10 µM, the IC50 [5] was > 10 µM and the % of control [6] was 100%. The % of control [7] was 100%.
In the case of `N#CC1(c2ccccn2)CCN(Cc2cc(C(=O)O)c(=O)n3ccccc23)CC1` [MSD-M1PAM], the Ki [8] is reported as > 10 µM.
For `Cc1ccc(-c2cnc([C@@]3(O)CC[C@H](C(=O)O)C(C)(C)C3)s2)cc1Nc1cccc(C(F)(F)F)n1` [MRL-SYKi-NC], the % of control [9] was 32%, the % of control [10] was 0% and the Ki [11] was 0.774 µM. The % of control [12] was 33%, the % of control [13] was 20% and the Ki [14] was > 10 µM. It also gave a % of control [15] of 38%.
`Cc1cc(Nc2nccc(C)n2)cc(-c2cnc([C@@]3(O)CC[C@H](C(=O)O)C(C)(C)C3)s2)c1` [MRL-SYKi] was tested, and the % of control [16] was 25.2%, the Ki (Histamine H3 receptor) was > 10 µM and the % of control [17] was 29.5%. It also gave a % of control [18] of 30.2% and a % of control [19] of 14.7%.
For `CC(=O)c1c(NS(C)(=O)=O)c2cc(-c3ccc(Cl)cc3)c(-c3ccc(Cl)cc3Cl)nc2n(C)c1=O` [MRL-CB1-NC], the Ki [20] was > 10 µM, the % of control [21] was 62% and the % of control [22] was 63%. The % of control [23] was 63%, the % of control [24] was 61% and the % of control [25] was 63%. For the same molecule, the Ki [26] was 1.67 µM.
